# From patent EP0554004A2, “Cephem compounds and antibacterial agents” (KATAYAMA SEIYAKUSYO CO. Ltd., priority 1992, dated 1993)
# Key:
# Assay type in all cases: cell-based
# [1] = tested on: S. marcescens IAM1184; assay: MIC against standard strains (Test Example 3); details: Serratia marcescens; S. marcescens IAM1184 (Test Example 3); read-out: MIC
# Outline: (§1)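 Each agent was incorporated into Mueller-Hinton agar, then seeded with 1 x 10^6 CFU/ml of bacteria from overnight broth culture. Plates stood overnight at 37°C before the lowest growth-inhibiting concentration was recorded as MIC.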
# [2] = tested on: A. calcoaceticos T59; assay: MIC against standard strains (Test Example 3); details: A. calcoaceticos T59 (Test Example 3); read-out: MIC
# Outline: as §1
# [3] = tested on: C. freundii ATCC8090; assay: MIC against standard strains (Test Example 3); details: Citrobacter freundii; C. freundii ATCC8090 (Test Example 3); read-out: MIC
# Outline: as §1
# [4] = tested on: K. pneumoniae IFO3317; assay: MIC against standard strains (Test Example 3); details: Klebsiella pneumoniae; K. pneumoniae IFO3317 (Test Example 3); read-out: MIC
# Outline: as §1
# [5] = tested on: E. coli CSH2 (RE45); assay: MIC against standard strains (Test Example 3); details: Escherichia coli
# Outline: (§2)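 Strains are grown overnight at 37°C in Mueller-Hinton broth and adjusted to 1 x 10^6 CFU/ml. Suspensions are then inoculated onto Mueller-Hinton agar plates each carrying one test agent, incubated overnight at 37°C, and scored for growth to give the MIC.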
# [6] = tested on: E. cloacae ATCC13407; assay: MIC against standard strains (Test Example 3); details: Enterobacter cloacae; E. cloacae ATCC13407 (Test Example 3); read-out: MIC
# Outline: as §1
# [7] = tested on: E. coli CSH2 (RK1); assay: MIC against standard strains (Test Example 3); details: Escherichia coli
# Outline: as §2
# [8] = tested on: P. aeruginosa NCTC10490; assay: MIC against standard strains (Test Example 3); details: Pseudomonas aeruginosa; P. aeruginosa NCTC10490 (Test Example 3); read-out: MIC
# Outline: as §1
# [9] = tested on: M. Morganii IFO3848; assay: MIC against standard strains (Test Example 3); details: Morganella morganii; M. Morganii IFO3848 (Test Example 3); read-out: MIC
# Outline: as §1
# [10] = tested on: S. aureus 167; assay: MIC against standard strains (Test Example 3); details: Staphylococcus aureus; S. aureus 167 (MRSA) (Test Example 3); read-out: MIC
# Outline: as §1
# [11] = tested on: B. subtilis ATCC6633; assay: MIC against standard strains (Test Example 3); details: Bacillus subtilis; B. subtilis ATCC6633 (Test Example 3); read-out: MIC
# Outline: as §1
# [12] = tested on: S. epidemidis IAM1296; assay: MIC against standard strains (Test Example 3); details: S. epidemidis IAM1296 (Test Example 3); read-out: MIC
# Outline: as §1
# [13] = tested on: S. aureus 195; assay: MIC against standard strains (Test Example 3); details: Staphylococcus aureus; S. aureus 195 (MRSA) (Test Example 3); read-out: MIC
# Outline: as §1
# [14] = tested on: P. mirabilis IFO3849; assay: MIC against standard strains (Test Example 3); details: Proteus mirabilis; P. mirabilis IFO3849 (Test Example 3); read-out: MIC
# Outline: as §1
# [15] = tested on: A. faecalis ATCC3750; assay: MIC against standard strains (Test Example 3); details: Alcaligenes faecalis; A. faecalis ATCC3750 (Test Example 3); read-out: MIC
# Outline: as §1
# [16] = tested on: S. aureus 209p JC-1; assay: MIC against standard strains (Test Example 3); details: Staphylococcus aureus; S. aureus 209p JC-1 (Test Example 3); read-out: MIC
# Outline: as §1
# [17] = tested on: P. vulugaris OX-19; assay: MIC against standard strains (Test Example 3); details: P. vulugaris OX-19 (Test Example 3); read-out: MIC
# Outline: as §1
# [18] = tested on: M. luteus ATCC 9341; assay: MIC against standard strains (Test Example 3); details: Micrococcus luteus, ATCC9341; M. luteus ATCC 9341 (Test Example 3); read-out: MIC
# Outline: as §1
# [19] = tested on: S. aureus Smith; assay: MIC against standard strains (Test Example 3); details: Staphylococcus aureus; S. aureus Smith (Test Example 3); read-out: MIC
# Outline: as §1
# [20] = tested on: E. coli NIHJ JC-2; assay: MIC against standard strains (Test Example 3); details: Escherichia coli, NIHJJC2; E. coli NIHJ JC-2 (Test Example 3); read-out: MIC
# Outline: as §1
# [21] = tested on: K. pneumoniae No. 42; assay: MIC against standard strains (Test Example 3); details: Klebsiella pneumoniae; K. pneumoniae No. 42 (Test Example 3); read-out: MIC
# Outline: as §1
# [22] = tested on: Staphylococcus epidermidis IAM 1296; assay: MIC against standard strains (Test Example 1); details: IAM1296, Muller-Hinton agar, 37°C overnight
# Description: (§3) By using each test strain cultured overnight at 37°C in a Muller-Hinton broth, there was prepared a bacterial solution with a bacterial cell population of 1 x 10^6 CFU/mi of the same bouillon. The bacterial solution was inoculated into the Muller-Hinton agar media each containing respectively one test agent and, after overnight incubation at 37°C, the minimum concentration that inhibited growth of the bacteria was determined and shown as MIC also in Table 1.
# (§4) Staphylococcus aureus 167 and Staphylococcus aureus 195 used in the test were MRSA. CTM (cefotiam) and FMOX (flomoxef) were used as control agents.
# [23] = tested on: Psuedomonas aeruginosa IFO 3445; assay: MIC against standard strains (Test Example 1); details: Muller-Hinton agar, 37°C overnight
# Description: as §3, §4
# [24] = tested on: Staphylococcus aureus 195; assay: MIC against standard strains (Test Example 1); details: Staphylococcus aureus 195 (MRSA); Muller-Hinton agar, 37°C overnight
# Description: as §3, §4
# [25] = tested on: Proteus vulgalis OX-19; assay: MIC against standard strains (Test Example 1); details: Muller-Hinton agar, 37°C overnight
# Description: as §3, §4
# [26] = tested on: Enterobacter cloacae ATCC 13407; assay: MIC against standard strains (Test Example 1); details: ATCC13407, Muller-Hinton agar, 37°C overnight
# Description: as §3, §4
# [27] = tested on: Citrobacter freundii ATCC 8090; assay: MIC against standard strains (Test Example 1); details: ATCC8090, Muller-Hinton agar, 37°C overnight
# Description: as §3, §4
# [28] = tested on: Staphylococcus aureus 209P JC-1; assay: MIC against standard strains (Test Example 1); details: Muller-Hinton agar, 37°C overnight
# Description: as §3, §4
# [29] = tested on: Proteus mirabilis IFO 3849; assay: MIC against standard strains (Test Example 1); details: IFO3849, Muller-Hinton agar, 37°C overnight
# Description: as §3, §4
# [30] = tested on: Escherichia coli CSH2 (RE45); assay: MIC against standard strains (Test Example 1)
# Description: as §3, §4
# [31] = tested on: Escherichia coli CSH2 (RK1); assay: MIC against standard strains (Test Example 1)
# Description: as §3, §4
# [32] = tested on: Staphylococcus aureus 167; assay: MIC against standard strains (Test Example 1); details: Staphylococcus aureus 167 (MRSA); Muller-Hinton agar, 37°C overnight
# Description: as §3, §4
# [33] = tested on: Escherichia coli NIHJ JC-2; assay: MIC against standard strains (Test Example 1); details: NIHJJC2, Muller-Hinton agar, 37°C overnight
# Description: as §3, §4
# [34] = tested on: Bacillus subtilis ATCC 6633; assay: MIC against standard strains (Test Example 1); details: ATCC6633, Muller-Hinton agar, 37°C overnight
# Description: as §3, §4
# [35] = tested on: Pseudomonas aeruginosa NCTC 10490; assay: MIC against standard strains (Test Example 1); details: NCTC10490, Muller-Hinton agar, 37°C overnight
# Description: as §3, §4
# [36] = tested on: Klebsiella pneumoniae IFO 3317; assay: MIC against standard strains (Test Example 1); details: IFO3317, Muller-Hinton agar, 37°C overnight
# Description: as §3, §4
# [37] = tested on: Klebsiella pneumoniae No. 42; assay: MIC against standard strains (Test Example 1); details: Muller-Hinton agar, 37°C overnight
# Description: as §3, §4
# [38] = tested on: Micrococcus luteus ATCC 9341; assay: MIC against standard strains (Test Example 1); details: ATCC9341, Muller-Hinton agar, 37°C overnight
# Description: as §3, §4
# [39] = tested on: Morganella morganii IFO 3848; assay: MIC against standard strains (Test Example 1); details: IFO3848, Muller-Hinton agar, 37°C overnight
# Description: as §3, §4
# [40] = tested on: Serratia marcescens IAM 1184; assay: MIC against standard strains (Test Example 1); details: IAM1184, Muller-Hinton agar, 37°C overnight
# Description: as §3, §4
# [41] = tested on: Staphylococcus aureus Smith; assay: MIC against standard strains (Test Example 1); details: Muller-Hinton agar, 37°C overnight
# Description: as §3, §4
smiles,measurement,setting,value
"CN(C)CCn1nnnc1SCC1=C(C(=O)O)N2C(=O)[C@@H](NC(=O)Cc3csc(N)n3)[C@H]2SC1 [CTM, cefotiam, reference compound]",MIC,[1],1.56 µg/mL
same,MIC,[2],100 µg/mL
same,MIC,[3],0.78 µg/mL
same,MIC,[4],0.05 µg/mL
same,MIC,[5],0.1 µg/mL
same,MIC,[6],3.13 µg/mL
same,MIC,[7],0.1 µg/mL
same,MIC,[8],> 100 µg/mL
same,MIC,[9],0.1 µg/mL
same,MIC,[10],100 µg/mL
same,MIC,[11],0.2 µg/mL
same,MIC,[12],0.2 µg/mL
same,MIC,[13],> 100 µg/mL
same,MIC,[14],0.39 µg/mL
same,MIC,[15],1.56 µg/mL
same,MIC,[16],0.39 µg/mL
same,MIC,[17],0.39 µg/mL
same,MIC,[18],0.39 µg/mL
same,MIC,[19],0.39 µg/mL
same,MIC,[20],0.1 µg/mL
same,MIC,[21],0.39 µg/mL
same,MIC,[22],0.2 µg/mL
same,MIC,[23],> 100 µg/mL
same,MIC,[24],> 100 µg/mL
same,MIC,[25],0.39 µg/mL
same,MIC,[26],50 µg/mL
same,MIC,[27],0.78 µg/mL
same,MIC,[28],0.2 µg/mL
same,MIC,[29],0.39 µg/mL
same,MIC,[30],0.2 µg/mL
same,MIC,[31],0.2 µg/mL
same,MIC,[32],> 100 µg/mL
same,MIC,[33],0.1 µg/mL
same,MIC,[34],0.2 µg/mL
same,MIC,[35],> 100 µg/mL
same,MIC,[36],0.1 µg/mL
same,MIC,[37],0.39 µg/mL
same,MIC,[38],0.39 µg/mL
same,MIC,[39],0.1 µg/mL
same,MIC,[40],3.13 µg/mL
same,MIC,[41],0.39 µg/mL
